Laboratory results published in patent US20080193411A1, “Anti-viral Compounds” (Genelabs Technologies, Inc., priority 2006, published 2008).

What follows are compounds tested on HCV replication (assay: HCV replicon assay (luciferase), ET (Huh-lucubineo-ET) cell line). Conditions: Hepatitis C virus; tested at 10 μM; ET (Huh-lucubineo-ET) replicon cells; luciferase activity 48-72 hours; relative to no compound control.
Format: cell-based
Method: A cell line, ET (Huh-lucubineo-ET) was used for screening of compounds of the present invention for inhibiting HCV replication. The ET cell line was stably transfected with RNA transcripts harboring a I389luc-ubi-neo/NS3-3′/ET; replicon with firefly luciferase-ubiquitin-neomycin phosphotransferase fusion protein and EMCV-IRES driven NS3-5B polyprotein containing the cell culture adaptive mutations (E1202G; T1280I; K1846T) (Krieger at al, 2001 and unpublished). The ET cells were grown in DMEM (Dulbeco's Modified Eagle's Medium), supplemented with 10% fetal calf serum, 2 mM Glutamine, Penicillin (100 IU/mL)/Streptomycin (100 μg/mL), 1× nonessential amino acids, and 250 μg/mL G418 (“Geneticin”). They were all available through Life Technologies (Bethesda, Md.). The cells were plated at 0.5-1.0×10^4 cells/well in the 96 well plates and incubated for 24 hrs before adding testing compounds. Then the compounds were added to the cells to achieve a final concentration of 0.1 nM to 50 μM and a final DMSO concentration of 0.5%. Luciferase activity were measured 48-72 hours later by adding a lysis buffer and the substrate (Catalog number Glo-lysis buffer E2661 and Bright-Glo luciferase system E2620 Promega, Madison, Wis.). Cells should not be too confluent during the assay. Percent inhibition of replication was plotted relative to no compound control. Under the same condition, cytotoxicity of the compounds was determined using cell proliferation reagent, WST-1 (Roche, Germany). The compounds showing antiviral activities, but no significant cytotoxicities were chosen to determine EC50 and TC50. For these determinations, a 10 point 2-fold serial dilution for each compound was used, which spans a concentration range of 1000 fold. EC50 and similarly TC50 values were calculated by fitting % inhibition at each concentration to the following equation:
% inhibition=100%/[(IC50/[I])^b+1]
where b is Hill's coefficient.
In some preferred embodiments compounds of Formula I will have a % inhibition of at least 20% when tested at 10 μM. In other embodiments the compounds of Formula I will have a % inhibition of at least 50% when tested at 10 μM.
Compound O=C(OCc1ccccc1)N1CCC[C@H]1c1nc2ccc(-c3ccc4c(c3)OCO4)cc2[nH]1 [Compound 4032, (S)-2-(6-Benzo[1,3]dioxol-5-yl-1H-benzoimidazol-2-yl)-pyrrolidine-1-carboxylic acid benzyl ester] has an inhibition at 10 µM of 25.8%.
For O=C(NC1CC1)c1ccc(-c2ccc3nc([C@@H]4CCCN4C(=O)OCc4ccccc4)[nH]c3c2)cc1 [Compound 4020, (S)-2-[6-(4-Cyclopropylcarbamoyl-phenyl)-1H-benzoimidazol-2-yl]-pyrrolidine-1-carboxylic acid benzyl ester], the inhibition at 10 µM was 96.1%.
With O=C(NC1CC1)c1ccc(-c2ccc([C@@H]3CCCN3C(=O)OCc3ccccc3)cc2)cc1 (stereo in doubt) [Compound 4044, 2-(4′-Cyclopropylcarbamoyl-biphenyl-4-yl)-pyrrolidine-1-carboxylic acid benzyl ester] the inhibition at 10 µM was 53.1%.
Compound O=C(Cc1cccc(-c2ccc([C@@H]3CCCN3C(=O)OCc3ccccc3)cc2)c1)NC1CC1 (stereo in doubt) [Compound 4043, 2-(3′-Cyclopropylcarbamoylmethyl-biphenyl-4-yl)-pyrrolidine-1-carboxylic acid benzyl ester] has an inhibition at 10 µM of 40%.
Work on O=C(OCc1ccccc1)N1CCC[C@H]1c1nc2ccc(-c3cc([N+](=O)[O-])c4[nH]ccc4c3)cc2[nH]1 [Compound 4033, (S)-2-[6-(7-Nitro-1H-indol-5-yl)-1H-benzoimidazol-2-yl]-pyrrolidine-1-carboxylic acid benzyl ester] yielded an inhibition at 10 µM of 97.5%.
With O=C(OCc1ccccc1)N1CCC[C@H]1c1nc2ccc(-c3cccc(O)c3)cc2[nH]1 [Compound 4054, (S)-2-[6-(3-Hydroxy-phenyl)-1H-benzoimidazol-2-yl]-pyrrolidine-1-carboxylic acid benzyl ester] the inhibition at 10 µM was 99.3%.
Compound COc1ccc(-c2ccc3nc([C@@H]4CCCN4C(=O)OCc4ccccc4)[nH]c3c2)c(OC)c1 [Compound 4017, (S)-2-[6-(2,4-Dimethoxy-phenyl)-1H-benzoimidazol-2-yl]-pyrrolidine-1-carboxylic acid benzyl ester] has an inhibition at 10 µM of 42.4%.
Work on O=C(Cc1ccc(-c2cccc(C#C[C@@H]3CCCN3C(=O)OCc3ccccc3)c2)cc1)NC1CC1 [Compound 4024, 2-(4′-Cyclopropylcarbamoyl-methyl-biphenyl-3-ylethynyl)-pyrrolidine-1-carboxylic acid benzylester] yielded an inhibition at 10 µM of 45.9%.
Compound O=C(Cc1ccc(-c2ccc([C@@H]3CCCN3C(=O)OCc3ccccc3)cc2)cc1)NC1CC1 (stereo in doubt) [Compound 4002, 2-(4′-Cyclopropylcarbamoylmethyl-biphenyl-4-yl)-pyrrolidine-1-carboxylic acid benzyl ester] has an inhibition at 10 µM of 33.3%.
For O=C(NCc1ccc(-c2cccc(C#C[C@@H]3CCCN3C(=O)OCc3ccccc3)c2)cc1)C1CC1 [Compound 4041, (S)-2-{4′-[(Cyclopropanecarbonyl-amino)-methyl]-biphenyl-3-ylethynyl}-pyrrolidine-1-carboxylic acid benzyl ester], the inhibition at 10 µM was 45.8%.
Compound O=C(Cc1ccc(-c2ccc3nc([C@@H]4CCCN4C(=O)OCc4ccccc4)[nH]c3c2)cc1)NC1CC1 [Compound 4021, (S)-2-[6-(4-Cyclopropylcarbamoylmethyl-phenyl)-1H-benzoimidazol-2-yl]-pyrrolidine-1-carboxylic acid benzyl ester] has an inhibition at 10 µM of 64.5%.
O=C(OCc1ccccc1)N1CCC[C@H]1c1nc2ccc(-c3ccccc3)cc2[nH]1 [Compound 4007, (S)-2-(6-Phenyl-1H-benzoimidazol-2-yl)-pyrrolidine-1-carboxylic acid benzyl ester] gave an inhibition at 10 µM of 4.4%.
O=C(OCc1ccccc1)N1CCC[C@H]1c1nc2ccc(-c3ccc4[nH]ccc4c3)cc2s1 [Compound 4005, (S)-2-[6-(1H-Indol-5-yl)-benzothiazol-2-yl]-pyrrolidine-1-carboxylic acid benzyl ester] showed an inhibition at 10 µM of 1.7%.
In the case of O=C(NC1CC1)c1ccc(-c2cccc(C#C[C@@H]3CCCN3C(=O)OCc3ccccc3)c2)cc1 [Compound 4060, (S)-2-(4′-Cyclopropylcarbamoyl-biphenyl-3-ylethynyl)-pyrrolidine-1-carboxylic acid benzyl ester], the inhibition at 10 µM is reported as 48.4%.
O=C(NC1CC1)c1ccc(-c2ccc3nc([C@@H]4CCCN4C(=O)OCc4ccccc4)oc3c2)cc1 [Compound 4019, (S)-2-[6-(4-Cyclopropylcarbamoyl-phenyl)-benzooxazol-2-yl]-pyrrolidine-1-carboxylic acid benzyl ester] was tested, and the inhibition at 10 µM was 50.5%.
Nc1ccc(-c2ccc3nc([C@@H]4CCCN4C(=O)OCc4ccccc4)[nH]c3c2)cc1 [Compound 4008, (S)-2-[6-(4-Amino-phenyl)-1H-benzoimidazol-2-yl]-pyrrolidine-1-carboxylic acid benzyl ester] showed an inhibition at 10 µM of 13.6%.
In the case of O=C(OCc1ccccc1)N1CCC[C@H]1c1nc2ccc(-c3ccc4[nH]ccc4c3)cc2[nH]1 [Compound 4035, (S)-2-[6-(1H-Indol-5-yl)-1H-benzoimidazol-2-yl]-pyrrolidine-1-carboxylic acid benzyl ester], the inhibition at 10 µM is reported as 99.9%.
With O=C(OCc1ccccc1)N1CCC[C@H]1c1nc2ccc(-c3cccc4cc[nH]c34)cc2[nH]1 [Compound 4014, (S)-2-[6-(1H-Indol-7-yl)-1H-benzoimidazol-2-yl]-pyrrolidine-1-carboxylic acid benzyl ester] the inhibition at 10 µM was 12.7%.
Work on O=C(OCc1ccccc1)N1CCC[C@H]1c1nc2ccc(-c3ccc4ccccc4c3)cc2[nH]1 [Compound 4011, (S)-2-(6-Naphthalen-2-yl-1H-benzoimidazol-2-yl)-pyrrolidine-1-carboxylic acid benzyl ester] yielded an inhibition at 10 µM of 87%.
For CC(=O)c1cccc(-c2ccc3nc([C@@H]4CCCN4C(=O)OCc4ccccc4)[nH]c3c2)c1 [Compound 4045, (S)-2-[6-(3-Acetyl-phenyl)-1H-benzoimidazol-2-yl]-pyrrolidine-1-carboxylic acid benzyl ester], the inhibition at 10 µM was 99.8%.
O=C(Cc1cccc(-c2ccc3nc([C@@H]4CCCN4C(=O)OCc4ccccc4)[nH]c3c2)c1)NC1CC1 [Compound 4003, (S)-2-[6-(3-Cyclopropylcarbamoylmethyl-phenyl)-1H-benzoimidazol-2-yl]-pyrrolidine-1-carboxylic acid benzyl ester] was tested, and the inhibition at 10 µM was 97%.
NC(=O)Nc1ccc(-c2ccc3nc([C@@H]4CCCN4C(=O)OCc4ccccc4)[nH]c3c2)cc1 [Compound 4034, (S)-2-[6-(4-Ureido-phenyl)-1H-benzoimidazol-2-yl]-pyrrolidine-1-carboxylic acid benzyl ester] gave an inhibition at 10 µM of 24.1%.
For O=C(OCc1ccccc1)N1CCC[C@H]1c1nc2ccc(-c3ccc4[nH]c5ccccc5c4c3)cc2[nH]1 [Compound 4047, (S)-2-[6-(9H-Carbazol-3-yl)-1H-benzoimidazol-2-yl]-pyrrolidine-1-carboxylic acid benzyl ester], the inhibition at 10 µM was 98.2%.
O=C(OCc1ccccc1)N1CCC[C@H]1c1nc2ccc(-c3ccco3)cc2[nH]1 [Compound 4030, (S)-2-(6-Furan-2-yl-1H-benzoimidazol-2-yl)-pyrrolidine-1-carboxylic acid benzyl ester] showed an inhibition at 10 µM of 66.8%.
In the case of O=C(Nc1ccc(-c2cccc(C#C[C@@H]3CCCN3C(=O)OCc3ccccc3)c2)cc1)C1CC1 [Compound 4004, (S)-2-[4′-(Cyclopropanecarbonyl-amino)-biphenyl-3-ylethynyl]-pyrrolidine-1-carboxylic acid benzyl ester], the inhibition at 10 µM is reported as 81.8%.
